Several values for one entry are separate records, joined by “and”; a condition that tells them apart may be missing. Equal entries are not always repeated. Where two headings read alike, the source gives them in different places.
Tests used:
SARS-CoV-2 Mpro = SARS-CoV-2 Mpro (Severe acute respiratory syndrome coronavirus 2, UniProt P0DTD1); assay: biochemical
PLpro = PLpro (Severe acute respiratory syndrome coronavirus 2, UniProt P0DTD1); assay: IC50 test against PLpro (selectivity check for quinones); assay type: biochemical, SARS-CoV-2; conditions: Supplementary Figure S4; for specificity of Mpro inhibition: conclusion from PLpro counter-test; for selectivity Mpro versus PLpro: quinones tested on PLpro

Row | SMILES | IC50 (SARS-CoV-2 Mpro; Mpro, Figure 5, triplicate experiments, read-out: IC50) | IC50 (SARS-CoV-2 Mpro; Mpro, read-out: IC50) | specificity of Mpro inhibition (PLpro) | selectivity Mpro versus PLpro (PLpro) | IC50 (SARS-CoV-2 Mpro; IC50)
1 | O=C1C=CC(=O)c2c1ncc1c2nc2sccn21 [Compound 110] | 705 nM | 705 nM | specifically inhibit the activity of Mpro | more selective on Mpro than PLpro | 
2 | O=C1C=C/C(=N\c2nc3c4ccccc4c4ccccc4c3[nH]2)c2ccccc21 [Compound 112] |  |  |  | more selective on Mpro than PLpro | 1690 nM and 1700 nM
3 | CC1=C(N=[N+]=[N-])C(=O)C(C)=C(N=[N+]=[N-])C1=O [Compound 88] |  |  | specifically inhibit the activity of Mpro | more selective on Mpro than PLpro | 723 nM
